# Reference: patent publication US10590422B2, “Anticancer therapeutic intervention” (PHYZAT BIOPHARMACEUTICALS, LDA., priority 2017, dated 2020)
# System: LAT1
# Assay: LAT1 activity: [^14C]-L-leucine uptake in fibrosarcoma HT-1080 cells after LAT1 gene silencing
# Type: cell-based, human
# Conditions: 5 nM siRNA, treatment 6 h, at 48 h, 0.4% Lipofectamine 2000, FIG. 8A
# Procedure: Cells were plated in 24-well plates (Sarstedt, Germany) and grown until confluence was reached. On the day of the experiment, cell culture medium was aspirated and cells were preincubated for 15 min in Hanks' medium (NaCl 140 mM, KCl 5 mM, MgSO4.7H2O 0.8 mM, K2HPO4 0.33 mM, KH2PO4 0.44 mM, MgCl2.6H2O 1 mM, CaCl2) 0.025 mM, Tris-HCl 9.75 mM, pH 7.4). Uptake was initiated by addition of Hanks' medium with 0.25 μM [^14C]-L-leucine in the absence and in the presence of 3 mM unlabeled L-leucine. During preincubation and incubation cells were continuously shaken and maintained at 37° C. Uptake was terminated after 1 min by rapid removal of uptake solution by means of a vacuum pump connected to a Pasteur pipette, followed by a rapid wash with Hanks' medium. Subsequently, cells were solubilized in 0.1% vol/vol Triton X-100 (dissolved in 5 mM Tris-HCl, pH 7.4), and radioactivity was measured by liquid scintillation counting.
# Cells were plated in 24-well (Sarstedt, Germany) or 6-well plates (Sarstedt, Germany) or 96-well plates with black walls clear bottom (BD Biosciences, USA) and incubated 24 h under normal growth conditions. siRNAs against LAT1 and transfection agent were diluted at desired concentrations and mixed according to transfection agent manufacturer's instructions. The mixture was incubated 20 min at RT for siRNA-complex formation, after which it was added to the cells and incubated at 37° C., 5% CO2. After the incubation period, serum and antibiotic was restored and cells were further incubated at normal conditions for the desired time points until evaluation of LAT1 activity or LAT1 expression (immunoblotting and RT-qPCR).
substance,measurement,value
58/387/388 (sense CUUCGCCACCUACCUGCUCAATT; antisense UUGAGCAGGUAGGUGGCGAAGTT; siRNA; sugars by position and backbone not given here; further chemistry not fully specified),[^14C]-L-leucine (0.25 μM) uptake at initial rate of uptake (1 min),decreased
